According to patent publication US20110281839A1, “COMBINATION THERAPY FOR THE TREATMENT OF BACTERIAL INFECTIONS” (priority 2010, published 2011):
Several values for one entry are separate records, joined by “and”; a condition that tells them apart may be missing. Equal values may be shown once. Entries after “also recorded” stand apart in the source; their conditions may differ. Where a name gives a salt, the structure may show the parent alone. Read-outs that look alike come from different tables or passages of the source.

How the values were obtained:
[1] = system: A. baumannii isolates; assay: Susceptibility of A. baumannii isolates by broth microdilution (CLSI methodology); assay type: cell-based; settings: for MIC: Acinetobacter baumannii
Protocol: Susceptibility of the A. baumannii isolates to each of the agents was determined by broth microdilution using Clinical and Laboratory Standards Institute (CLSI) methodology at a central laboratory. […] The susceptibility of A. baumannii to other drugs was interpreted according to the standard procedures as defiend by CLSI (Clinical and Laboratory Standards Institute Test Procedures MO2-A10, Vol. 29, No. 1; M07-A8, Vol. 29, No. 2 and/or M100-S19, Vol. 29, No. 3; Jan. 2009).

[2] = system: A. baumannii; settings: MICs as high as 16 μg/mL; doripenem 1 gram over a 4 hour infusion; cited from earlier work
[3] = system: A. baumannii; assay: Clinical and microbiological outcome at test of cure visit in subjects with nosocomial pneumonia, 3 clinical studies of doripenem; assay type: in vivo, human
Protocol: Each group received treatment of either doripenem alone or doripenem with concomitant therapy, as noted.
True concomitant therapy was determined by applying the following algorithm: treatment with the second antimicrobial was initiated during Study Days 1-14 and administered on the same study days as doripenem. In addition, the second antimicrobial was given for >1 day of the overlapping period. Concomitant therapy was assessed for the following antimicrobial agents: the fluoroquinolones ciprofloxacin and levofloxacin, colistin and the aminoglycosides amakacin and tobramycin.
Doripenem was administered at either 500 mg Q8H as a 1 hour infusion, 500 mg Q8H as a 4 hour infusion or 1g Q8H as a 4 hour infusion, depending on the specific clinical study, as noted in the Tables below.

[4] = isolate of each patient, doripenem + amikacin group
[5] = A. baumannii isolate of each patient, doripenem monotherapy group, monohydrate
[6] = isolate of each patient, doripenem + amikacin group, monohydrate
[7] = isolate of each patient, doripenem + colistin group, monohydrate
[8] = isolate of each patient, doripenem + fluoroquinolone group
[9] = isolate of each patient, doripenem + tobramycin group, monohydrate
[10] = per patient, test of cure visit, doripenem 1 gram or 500 mg every 8 hours, listed as Doripenem Monotherapy, monohydrate
[11] = whole treatment group, test of cure
[12] = isolate of each patient, doripenem + tobramycin group
[13] = isolate of each patient, doripenem + colistin group

For `NCC[C@H](O)C(=O)N[C@@H]1C[C@H](N)[C@@H](O[C@H]2O[C@H](CN)[C@@H](O)[C@H](O)[C@H]2O)[C@H](O)[C@H]1O[C@H]1O[C@H](CO)[C@@H](O)[C@H](N)[C@H]1O` [Amikacin, amikacin], the “Amikacin MIC” value [1, 4] was >64 μg/mL (5×) and 4 μg/mL and 1 μg/mL (2×) and 2 μg/mL and the Amikacin susceptibility [1, 4] was “(NS) (Non-susceptible (NS) ≧32 μg/mL); also recorded: (S) (Amikacin: Susceptible (S) ≦16 μg/mL)”.
For `C[C@@H](O)[C@H]1C(=O)N2C(C(=O)O)=C(S[C@@H]3CN[C@H](CNS(N)(=O)=O)C3)[C@H](C)[C@H]12` [Doripenem, doripenem monohydrate], the “Doripenem MIC” value [1, 5] was 0.25 μg/mL (2×) and 0.12 μg/mL (2×) and 0.5 μg/mL (2×) and >128 μg/mL and 8 μg/mL and 1 μg/mL, the Doripenem susceptibility [1, 5] was “(S) (Susceptible (S) ≦1 μg/mL); also recorded: (NS) (Non-susceptible (NS) >2 μg/mL)” and the MIC ([1]; isolate of each patient, doripenem + fluoroquinolone group, read-out: Doripenem MIC) was over 32 µg/mL. For the same compound, the “Doripenem MIC” value [1, 6] was 64 μg/mL (2×) and 1 μg/mL (2×) and 0.25 μg/mL and 0.12 μg/mL and >32 μg/mL and 16 μg/mL, the Doripenem susceptibility [1, 6] was “(NS) (Non-susceptible (NS) >2 μg/mL); also recorded: (S) (Susceptible (S) ≦1 μg/mL)” and the “Doripenem MIC” value [1, 7] was >32 µg/mL and 32 µg/mL and 1 µg/mL. The Doripenem susceptibility [1, 7] was “(NS) (Non-susceptible (NS) >2 μg/mL); also recorded: (S) (Susceptible (S) ≦1 μg/mL)”, the Doripenem susceptibility [1, 8] was “(NS) (Non-susceptible (NS) >2 μg/mL)” and the “Doripenem MIC” value ([1]; isolate of each patient, doripenem + fluoroquinolone group, monohydrate) was 32 µg/mL and 16 µg/mL and >32 µg/mL. The “Doripenem MIC” value [1, 9] was 0.12 μg/mL (3×) and >32 μg/mL and 1 μg/mL and 0.25 μg/mL, the Doripenem susceptibility [1, 9] was “(S) (Susceptible (S) ≦1 μg/mL); also recorded: (NS) (Non-susceptible (NS) >2 μg/mL)” and the “treatment of pneumonia due to A. baumannii” value [2] was “effectively treated”. The treatment effect ([3]; nosocomial pneumonia due to doripenem-susceptible A. baumannii) was “effective”, the “Clinical Outcome” value [3, 10] was “Cure (7×) and Failure (2×)” and the “Microbiological Outcome” value [3, 10] was “Eradicated; also recorded: Persisted”. The positive outcome [3, 11] was 77.8% and the “positive outcome (patients with positive outcome / patients in group)” value [3, 11] was 7/9.
For `C[C@H]1COc2c(N3CCN(C)CC3)c(F)cc3c(=O)c(C(=O)O)cn1c23` [Levofloxacin, levofloxacin], the MIC ([1]; isolate of each patient, doripenem + fluoroquinolone group, read-out: Fluoroquinolone MIC) was over 4 µg/mL, the “Fluoroquinolone MIC” value [1, 8] was over 4 µg/mL and the Levofloxacin susceptibility [1, 8] was “(NS) (Non-susceptible (NS) ≧4 μg/mL)”.
With `NC[C@H]1O[C@H](O[C@H]2[C@H](O)[C@@H](O[C@H]3O[C@H](CO)[C@@H](O)[C@H](N)[C@H]3O)[C@H](N)C[C@@H]2N)[C@H](N)C[C@@H]1O` [Tobramycin, tobranycin sulfate] the “Tobramycin MIC” value [1, 12] was 0.5 μg/mL (2×) and 4 μg/mL and 0.25 μg/mL and the Tobramycin susceptibility [1, 12] was “(S) (Tobramycin: Susceptible (S) ≦4 μg/mL)”.
With colistin the “Colistin MIC” value [1, 13] was 1 µg/mL and the Colistin susceptibility [1, 13] was “S (Colistin: Susceptible (S) ≦2 μg/mL)”.
